Source: patent US9260466B2, “Use of a flavanol glycoside for suppressing activation of stellate cells” (Hong Kong Baptist University, priority 2013, dated 2016)
≈ marks a conversion by molar mass, not a printed value.

Assays:
Type in all cases: cell-based, rat
[1] = tested on: NF-κB; assay: Western blotting of nuclear translocation of NF-κB in LTC-14 cells; conditions: compared to the TGF-β-treated control, FIG. 5
Method: (§1) LTC-14 cells were cultured at 37° C. under a humidified condition of 95% air and 5% CO2 in Iscove's Modified Dulbecco's Medium (IMDM) supplemented with 10% fetal bovine serum (FBS). Cells used in all the experiment were among passages 9 to 25. LTC-14 cells were seeded at a density of 1×10^5/well in a 12-well plate, and incubated with recombinant TGF-β at 5 ng/mL and Eruberin A at 0, 0.5, 1, 5, 10 and 20 μg/mL in serum-free IMDM for 24 hours. Cells were then harvested for mRNA and protein extraction or subjected to Sirius Red/Fast Green staining or immunofluorescent staining.
(§2) Cytoplasmic and nuclear protein fractions of the LTC-14 cells were extracted using specific lysis buffers containing protease inhibitors. Cell lysates were loaded and separated by SDS-polyacrylamide gel electrophoresis. After wet electroblotting, proteins were transferred onto PVDF membranes (Bio-Rad), blocked with 5% non-fat milk, probed with antibodies and visualized by utilization of an ECL kit (GE Healthcare).

[2] = tested on: LTC-14 cells; assay: Immunofluorescent staining of α-SMA in TGF-β-stimulated LTC-14 cells; conditions: TGF-β 5 ng/mL, FIG. 1
Method: as §1
For immunofluorescent staining of α-SMA, LTC-14 cells were seeded at a density of 1×10^5 onto the poly-L-lysine-coated cover slips in a 24-well plate, incubated with TGF-β at 5 ng/mL and Eruberin A at 0, 0.5, 1, 5, 10 and 20 μg/mL in serum-free IMDM for 24 hours. Cells were then fixed, blocked with 3% bovine serum albumin (BSA), probed with antibodies and mounted with fluorescence mounting medium containing 4′,6-diamidino-2-phenylindole (DAPI). Images were captured using the Nikon microscope and analyzed by the SPOT advanced software.

[3] = tested on: LTC-14 cells; assay: Sirius Red/Fast Green collagen staining of LTC-14 cells; conditions: TGF-β 5 ng/mL, Eruberin A 10 μg/mL, p<0.05 vs TGF-β alone, FIG. 3
Method: as §1
Amounts of collagen and non-collagenous proteins in LTC-14 cells were measured using the Sirius Red/Fast Green collagen staining kit (Chondrex Inc.) according to the manufacturer's instruction.

[4] = tested on: LTC-14 cells; assay: Western blotting of α-SMA and FN1 proteins in TGF-β-stimulated LTC-14 cells; conditions: TGF-β 5 ng/mL, Eruberin A 0.5-20 μg/mL, 24 hours, serum-free medium, FIG. 2
Method: as §1, §2

[5] = tested on: LTC-14 cells; assay: MTT cell proliferation assay; conditions: Eruberin A in the range of 0 to 20 μg/mL; results not shown
[6] = tested on: LTC-14 cells; assay: Real-time quantitative PCR of fibrotic mediator mRNA in TGF-β-stimulated LTC-14 cells; conditions: TGF-β 5 ng/mL, 24 hours
Method: as §1
mRNA samples from LTC-14 cells were extracted using Trizol reagent and subjected to a reverse transcription for cDNA synthesis. The synthesized cDNA was applied to amplifications with rat-specific primers for Tgf-β, Acta2, Col I-α1 and Fn1 in the ABI ViiA 7 real-time PCR system (Applied Biosystems) using 2×SYBR Green PCR Master Mix (Applied Biosystems). The Ct value of gene of interest was normalized to the endogenous reference Gapdh and presented as 2^−ΔΔCt using the comparative Ct method.

[7] = Eruberin A 0.5-20 μg/mL, FIG. 4

**Q.** `COc1ccc(C2C[C@@H]3OC4C(Oc5c(C)c(O)c(C)c(c53)O2)OC(CO)C(O)C4O)cc1` (stereo partly drawn) [Eruberin A] was tested. Which “nuclear translocation of NF-κB” value [1] did it give?
**A.** The value was “significantly decreased”.

**Q.** What about the “TGF-β-stimulated α-SMA expression (immunofluorescence)” value ([2]; 24 hours) of the same compound?
**A.** Its value is “significantly attenuated”.

**Q.** And the “immunoreactivities of α-SMA” value ([2]; Eruberin A at 10 μg/mL)?
**A.** Its value is “sufficiently suppress”.

**Q.** And the “production of collagen (ratio of Sirius Red-stained collagenous to Fast Green-stained non-collagenous proteins)” value [3]?
**A.** The value was “notably suppressed”.

**Q.** And the “TGF-β-provoked elevation of FN1 protein” value [4]?
**A.** Its value is “effectively attenuated”.

**Q.** And the “TGF-β-provoked elevation of α-SMA protein” value [4]?
**A.** The value was “effectively attenuated”.

**Q.** What about the “cytotoxicity (MTT cell proliferation assay)” value [5] of the same compound?
**A.** Its value is “no notable cytotoxicity”.

**Q.** And the IC50 ([6]; Rattus norvegicus, read-out: IC50 based on suppressive effects on the mRNA expression of α-SMA)?
**A.** The IC50 was ~10 µg/mL (≈ 21.7 µM).

**Q.** And the “TGF-β-elevated mRNA expression level of Acta2” value [6, 7]?
**A.** Its value is “significantly and dose-dependently suppressed”.

**Q.** And the “TGF-β-elevated mRNA expression level of Col I-α1” value [6, 7]?
**A.** Its value is “significantly and dose-dependently suppressed”.

**Q.** What about the “TGF-β-elevated mRNA expression level of Fn1” value [6, 7] of the same compound?
**A.** The value was “significantly and dose-dependently suppressed”.

**Q.** What about the “TGF-β-elevated mRNA expression level of Tgf-” value [6, 7] of the same compound?
**A.** Its value is “significantly and dose-dependently suppressed”.
